Where a name gives a salt, the structure may show the parent alone.

In experiment [1] the test system is endogenous Nrf2. The experiment in a line: Western blot of endogenous Nrf2 in HeLa cells. It counts as cell-based, human. The following applies: 8 h or 16 h treatment, FIG. 5C. The method, then:
(§1) HeLa cells were transfected with the OKD48 construct. Luciferase assay was conducted after treatment for 8 hours or 16 hours in the presence or absence of different stressors (sodium arsenite (ASN), diethyl maleate (DEM), H2O2, tunicamycin (Tun), thapsigargin (Tg), dithiothreitol (DTT), etoposide (Etp), and thenoyltrifluoroacetone (TTFA)). […] HEK293T cells were transfected with the OKD48 construct and treated for 8 hours in the presence or absence of different stressors. The cell lysates were analyzed by Western blotting using an anti-Luc antibody or an anti-GAPDH antibody. […] HeLa cells were treated for 8 hours or 16 hours in the presence or absence of different stressors. Then, the cell lysates were analyzed by Western blotting using an anti-Luc antibody or an anti-GAPDH antibody. […]
(§2) The cells were lysed in an SDS sample buffer (50 mM Tris-HCl (pH 6.8), 2% SDS, 50 mM DTT, 10% glycerol, and 1 μg/ml bromophenol blue). […] After the electrophoresis, the proteins were electrically transferred to a polyvinylidene fluoride porous membrane and immunologically detected by a standard approach using a monoclonal antibody against luciferase (Promega Corp.), a monoclonal antibody against GFP (Nacalai Tesque, Inc.), a monoclonal antibody against GAPDH (Cell Signaling Technology, Inc.), or a polyclonal antibody against Nrf2 (Santa Cruz Biotechnology, Inc.).
(A western blot detects proteins with antibodies after separation by electrophoresis.)

Experiment [2] relates to OKD48-Venus reporter. As to the kind of experiment: Fluorescence imaging of OKD48-Venus reporter in HEK293T cells. It counts as cell-based, human. The following applies: 8 h treatment, FIG. 7A. Here is the method: HEK293T cells were transfected with the OKD48-Venus construct and then treated for 8 hours in the presence or absence of sodium arsenite (ASN) or diethyl maleate. Their fluorescence images were obtained together with phase-contrast images. […] HEK293T cells were transfected with the OKD48-Venus construct and then treated for 8 hours in the presence or absence of sodium arsenite (ASN), diethyl maleate (DEM), H2O2, tunicamycin (Tun), thapsigargin (Tg), dithiothreitol (DTT), etoposide (Etp), or thenoyltrifluoroacetone (TTFA). Fluorescence from their cell lysates was measured and normalized for luciferase in the cotransfected cells. In the diagram, n.d. represents not detected. […] Their cell lysates were analyzed by Western blotting using an anti-GFP antibody or an anti-GAPDH antibody. […]
In order to take images of the cells, the HEK293T cells were seeded over a 6-well plate and then transfected with the plasmid DNAs. At 24 hours after the transfection, fluorescence images were obtained using FSX100 (Olympus Corp.). In order to measure the fluorescence of cell lysates, the cells were lysed in a digitonin buffer (50 mM Tris-HCl (pH 7.5), 1 mM EDTA, 10 mM EGTA, and 10 μM digitonin) at 37° C. for 30 minutes. […] The fluorescence intensity of each sample was normalized against the activity of luciferase derived from the cotransfected cells. […]

Experiment [3] has as its system OKD48-transgenic mouse. As to the kind of experiment: In vivo luminescence imaging of OKD48-transgenic mouse. The following applies: 12.5 mg/kg intraperitoneal, 6 hours later. The method, then:
The 4.5-kb Spel-SfiI fragment of p(3×ARE)TKbasal-hNrf2(1-433)-GL4-Flag was microinjected as a transgene into the fertilized eggs of a C57BL/6 mouse. […] The obtained mouse was used for in vivo imaging assay. After intraperitoneal injection of D-luciferin (4.5 mg), the mouse was analyzed according to a standard protocol using an in vivo imaging system IVIS (Xenogen Corp.). The experimental protocol involving the animal was approved by the animal research committee of RIKEN (Japan).
In order to monitor oxidative stress in vivo, an OKD48-transgenic mouse having a 3×ARE-driven Nrf2(1-433)-Luc expression gene was prepared. In order to confirm that cells placed under oxidative stress were able to be effectively used in vivo, ASN inducing oxidative stress in various tissues or organs was intraperitoneally injected (12.5 mg/kg) to a transgenic mouse.

Experiment [4] relates to OKD48-Luc reporter (Keap1-Nrf2 pathway). As to the kind of experiment: Dual luciferase assay using the OKD48-Luc reporter in HeLa cells. The following applies: for response of HeLa cells containing OKD48-Luc (luciferase assay): 8 h or 16 h, 10 μM ASN, 100 μM DEM, 2.5 μg/ml tunicamycin, 1 μM thapsigargin, 1 mM DTT, 100 μM etoposide, 100 μg/ml TTFA, FIG. 5A. It counts as cell-based, human. Here is the method:
HeLa cells or HEK293T cells were cultured in a DMEM medium supplemented with 100 U/ml penicillin, 100 μg/ml streptomycin, and 10% fetal bovine serum at 37° C. in an atmosphere containing 5% CO2. The plasmid DNAs were inserted into the cells of each line using the calcium phosphate-DNA precipitation method. In order to test cellular response to agents, the cells were treated with 10 μM sodium arsenite (ASN), 100 μM diethyl maleate (DEM), 200 μM H2O2, 2.5 μg/ml tunicamycin, 1 μM thapsigargin, 1 mM DTT, 100 μM etoposide, or 100 μg/ml thenoyltrifluoroacetone (TTFA) over varying times.
In dual luciferase assay using the OKD48-Luc reporter, phRL-TK (Promega Corp.) was used as an internal control. The HeLa cells were seeded on a 24-well plate and then transfected with the plasmid DNAs. At 24 hours after the transfection, the cells were lysed for luciferase assay. Each reporter activity was measured using a luciferase assay system (Promega Corp.) and a luminometer (Berthold Japan Co., Ltd.). The results were shown as mean±SEM of three experiments. Each value was indicated in terms of fold induction. This fold induction was normalized for that of an untreated sample (NT) (FIG. 5A), an untreated sample (NT) free from Nrf2 overexpression (FIG. 5D), or an untreated sample (NT) free from Keap1 overexpression (FIG. 5E). In this calculation, the fold induction of each NT was defined as 1.0.

Experiment [5] deals with OKD48-Luc. The experiment in a line: Western blot of OKD48-Luc protein with anti-Luc antibody in HEK293T cells. Format: cell-based, human. The following applies: 8 h treatment, FIG. 5B. The method, then: as §1, §2

Consider `O=[As]O` [ASN, sodium arsenite], for which the “induction of endogenous Nrf2 (Western blot)” value in experiment [1] is given as “significantly induced”. Further, in experiment [2], the “fluorescence of OKD48-Venus under microscopic observation” value is listed as “emitted fluorescence”. Besides, the “luminescence in the liver” value in experiment [3] (abdominal section, FIG. 8) is listed as “strong luminescence”. Also, the “luminescence in other tissues or organs (e.g., stomach and kidney)” value in experiment [3] (data not shown) is “detected to some extent”. In addition, in experiment [4] (HeLa cells with Nrf2 overexpression, 8 h treatment, FIG. 5D), the “activity of OKD48-Luc under Nrf2 overexpression, effect of stressor treatment” value is “slightly increased”. The “response of HeLa cells containing OKD48-Luc (luciferase assay)” value (“response” for short) in experiment [4] was “specifically responded”. For the same molecule, the “OKD48-Luc at the protein level (Western blot, anti-Luc antibody)” value in experiment [5] is “rise”.

For tunicamycin, the “response” value in experiment [4] is recorded as “rarely activated”.

Turning to `O[C@H](CS)[C@H](O)CS` (racemic) [dithiothreitol], the “response” value in experiment [4] was “rarely activated”.

On to `CCOC(=O)/C=C\C(=O)OCC` [DEM, diethyl maleate], for which the “induction of endogenous Nrf2 (Western blot)” value in experiment [1] was “significantly induced”. The “fluorescence of OKD48-Venus under microscopic observation” value in experiment [2] is on record as “emitted fluorescence”. For the same molecule, the “response” value in experiment [4] is “specifically responded”. For the same molecule, the “OKD48-Luc at the protein level (Western blot, anti-Luc antibody)” value in experiment [5] is recorded as “rise”.

Take `C/C=C(/C)C(=O)O[C@H]1C(C)=C2[C@H]([C@@H]1OC(=O)CCCCCCC)[C@@](C)(OC(C)=O)C[C@H](OC(=O)CCC)[C@@]1(O)[C@H]2OC(=O)[C@@]1(C)O` [thapsigargin]: the “response” value in experiment [4] was “rarely activated”.

With `COc1cc([C@@H]2c3cc4c(cc3[C@@H](O[C@@H]3O[C@@H]5CO[C@@H](C)O[C@H]5[C@H](O)[C@H]3O)[C@H]3COC(=O)[C@H]23)OCO4)cc(OC)c1O` [etoposide], the “response” value in experiment [4] is reported as “rarely activated”.

With `O=C(CC(=O)C(F)(F)F)c1cccs1` [thenoyltrifluoroacetone], the “response” value in experiment [4] is on record as “rarely activated”.

(Values after patent US10828378B2, “Nucleic acid construct for expression of oxidative stress indicator and use thereof” (Riken, priority 2011, dated 2020).)
